Laboratory results: patent US8962263B2, “Methods and compositions for detecting the activation state of multiple proteins in single cells” (The Board of Trustees of the Leland Stanford Junior …, priority 2001, dated 2015)

How the values were obtained:
[1] = biological target: T1, LFA-1 (Mus musculus, UniProt P24063); details: oral; cited from earlier work
T1 construct: host or cells: mouse, in vivo

[2] = tested on: CD56+CD8+ cells; experiment: flow cytometric conjugate formation assay of CD56+CD8+ cells and HL60 cells; type: cell-based, human; details: chemicals 10 μM 30 min prior to ICAM-2 10 μg/ml 30 min
Protocol: A) Conjugate formation of CFSE labeled HL60, cells and CD56^+, CD8^+, cells. Conjugate flow cytometric based assay was performed on PBMC treated with indicated chemicals (10, μM, 30, min) prior to treatment with ICAM-2, (10, μg/ml, 30, min). CFSE labeled HL60, cells were incubated at 25:1, E:T ratio for 5, min, and fixed with 1% paraformaldehyde. Cells were then immunolabeled with CD8 and CD56, antibodies, gated for CD8^+, CD56^+, cell populations and percent HL60, fluorescence was made relative to total HL60, cells. B) IL-2, activated PBMC were either treated with ICAM-2, (10 μg/ml, 30, min) or mock-treated (IgG) and stained for active-LFA-1, (mAb24-Alexa633), phospho-p44/42-Ax488, CD8-CY5PE, and CD56-PE.
Target cell lysis was measured by flow cytoemtric based detection of CFSE labeled HL60 cells. HL60 cells were labeled with 1 μg of CFSE (30 min, 37° C.). […] Percent specific lysis was calculated by the following equation: % specific lysis=100-100×(experimental HL60 count/total control HL60 count). HL60 counts were detectable by the CFSE fluorescence. Percent perforin was calculated by the following equation: % perforin=100×[(experimental perforin MFI−isotype mAb MFI)/(total perforin MFI−isotype mAb MFI)]. […] Cell conjugates were determined by flow cytometry as described (Morgan et al., 2001). […]

[3] = tested on: NIH3T3; experiment: staurosporine induced apoptosis in ICAM-2 transduced NIH3T3 (annexin-V binding, BrdU TUNEL); type: cell-based, murine; details: cell type not stated; data not shown
Protocol: A) Pharmacological inhibitors of PI3K abrogate ICAM-2's anti-apoptotic. ICAM-2, or vector transduced BaF3, cells were treated with staurosporine (1, μM) with (unfilled) or without (filled) the addition of 100, nM wortmannin for 24, hours (left bar graph). Apoptosis was determined by nuclear staining and fluorescence microscopy (left bar graph) and by annexin-V binding assay (right bar graph). The proportion of apoptotic cells in each culture without staurosporine was 8%+/−2. The percentage of apoptotic cells is expressed as the mean (bar)+SD of triplicate cultures. ICAM-2, 1CAM2-AC, or vector transduced NIH3T3, were treated with staurosporine ([…]) in the presence or absence of 10, μM LY294002, for 24, hours (right bar graph). DMSO vehicle served as negative control. The percentage of apoptotic cells is expressed as the mean (bar)+/−SD of triplicate cultures. B) Confocal images of PI3K and AKT localization in ICAM-2, (top) or vector control cells (bottom). C) Confocal images of ezrin and the p85, subunit of PI3K (green) localization in ICAM-2, (top) or vector control cells (bottom).
A) The anti-apoptotic effect of ICAM-2, is both wortmannin and LY294002, sensitive. ICAM-2, or vector transduced BaF3, cells were treated with staurosporine (1, μM) with (unfilled) or without (filled) the addition of 100, nM wortmannin for 24 hours. Apoptosis was determined by nuclear staining and fluorescence microscopy (left bar graph) and by annexin-V binding assay (right bar graph). The proportion of apoptotic cells in each culture without staurosporine was 8%±2. The percentage of apoptotic cells is expressed as the mean (bar)±SD of triplicate cultures. ICAM-2, ICAM2-ΔC, or vector transduced NIH3T3, were treated with staurosporine (1, μM) in the presence or absence of 10, μM LY294002, for 24, hours. DMSO vehicle served as negative control. The percentage of apoptotic cells is expressed as the mean (bar)±SD of triplicate cultures. B) ICAM-2, expressing NIH3T3, cells are sensitive to apoptosis in the presence of PI3K inhibitor LY294002. BrdU TUNEL assay was performed in staurosporine (1, μM) or LY294002, (10, μM) treated ICAM-2, ICAM2-ΔC, and control vector transduced NIH3T3, cells. The percentage of apoptotic cells is expressed as the mean (bar)±SD of triplicate cultures.
Apoptosis was determined either by counting pyknotic nuclei, annexin-V binding by flow cytometry, or TUNEL BrdU staining by flow cytometry as indicated. Apoptosis was induced either by staurosporine (1 μm), treatment with anti-mouse Fas (5 μq/ml Santa Cruz Biotechnology (SCB), […] Fas (5 μg/ml Jo2 Biomed) or anti-human Fas (10 ng/ml CH11 Kamiya Biomedical) as indicated in appropriate experiment, IL-3 withdrawal-(24 hrs) or as indicated. For pyknolic nuclei count, NIH3T3 cells were grown on glass coverslips and assayed for apoptosis. Suspension cells were analyzed by nuclear staining with 25 μM acridine orange/25 μm ethidium bromide or 5 μg/ml Hoechst 33342 (Molecular Probes, Eugene, Oreg.). Apoptosis was identified by the presence of characteristic pyknotic nuclei as described (Jacobson and Raff, 1995). At least 5 individual fields were photographed and counted using a Zeiss axioscope fluorescence microscope. For the survival assay 10^6 NIH3T3 cells were plated in 10 cm dishes and incubated overnight at 37° C. The cells were treated with 1 μM staurosporine for 24 hours. The cells were washed and cultured for 24 hours in complete medium. The cells were trypsinized and viable cells counted following trypan blue staining. Untreated cells were counted at the time of treatment. % survival represents (number of viable cells post-treatment)/(number of viable cells pretreatment). FACS based annexin-V-FITC/PI staining was done as described (PharMingen). TUNEL assay was performed as described by manufacturer of Apoptosis BrdU kit (Promega). […]

[4] = tested on: NK leukemic cell line YT; details: cited from earlier work
[5] = tested on: Raf and p44/42 MAPK; experiment: phospho-raf and phospho-p44/42 immunoblot kinase inhibitor screen after ICAM-2 stimulus; type: cell-based, human; details: compound 10 μM 30 min, then ICAM-2 10 μg/ml 30 min
Protocol: Serum starved cells were treated with 10, μM of indicated compound 30, minutes prior to being ICAM-2, crosslinked for 30, minutes (10, μg/ml) and assessed for phosphorylated Raf and p44/42, MAPK using phospho specific antibodies in standard immunoblot procedures. Control IgG dissolved in 0.1% DMSO served as negative control. Blots are representative of triplicate experiments. […] Co-immunoprecipitation experiments were performed immunoprecipitating αL and β2, integrin and immunoblotting for the presence of SYK and PYK as a function of a stimulus for 30, minutes as indicated (antibodies used at 10, μg/ml, compounds used at 1, μM and control 19, served as negative control).
A) Phospho-raf and phospho-p44/42, immunoblot inhibition profile by tyrosine kinase inhibitors. […] Cell lysates were immunoblotted for phospho-raf and phospho-p44/42. […] Phospho-specificity was determined by phospho-PykpY402, and phospho-syk (Tyr525/526) antibodies. […] Cells were treated and processed as above. Phospho-specific PKCα/βII, (Thr638) and the following antibodies were used; Pyk2, and Syk were first immunoprecipated, probed with anti-phosphotyrosine antibody (PY20), stripped and subsequently probed with indicated non-phospho specific antibody. Immunoblots are representative of triplicate experiments. […]

[6] = tested on: Pyk2; experiment: sICAM-2 induced Pyk2 phosphorylation (phospho-tyrosine based ELISA, chemical genetic approach); type: cell-based; details: phospho-tyrosine based ELISA
Source text: E) depicts that LFA-1, induced phosphorylation of Pyk2, and Syk is dependent on PKC. We screened for the inhibition of sICAM-2, induced Pyk2, and Syk phosphorylation by chemical inhibitors to tyrosine kinases using a phospho-tyrosine based ELISA. Pyk2, phosphorylation was abrogated in the presence of PKC inhibitors bisindolymaleimide II (BIM II) and staurosporine (STP), in addition to tyrphostin A9, a specific Pyk2, inhibitor. a Pyk2, phosphorylation was also affected by inhibitors of phospholipase Cg (neomycin), inhibitors of Syk (piceatannol), and PKC inhibitor BIM I. Syk phosphorylation was completely abolished by inhibition of Pyk2, PLCg1, and strongly affected by PKC inhibitors. Thus, both Pyk2, and Syk phosphorylations were dependent on PKC activity, while Syk phosphorylation was additionally dependent on PLCg1, and Pyk2, activity. It was not possible to assess specific PKC isozymes by this method.
A chemical genetic approach was undertaken to determine the hierarchy of PKC, Pyk2, PLCg1, and Syk activities in response to sICAM-2, stimulus by verifying phosphorylation status of each kinase in the presence of respective chemical inhibitors. Inhibition of PKC with BIM II abrogated phosphorylation of Pyk2, PLCg1, and Syk. Inhibition of PLCg1, by neomycin abrogated phosphorylation of Syk, with no inhibition observed for Pyk2. […] Thus, the upstream signaling events from LFA-1, to Raf-1, appear to involve PKC/Pyk2/PLCg1/Syk. […] We are currently pursuing these complexes in a separate study.

[7] = tested on: Syk; details: cited from earlier work

T1 sequence (P24063 24-1162): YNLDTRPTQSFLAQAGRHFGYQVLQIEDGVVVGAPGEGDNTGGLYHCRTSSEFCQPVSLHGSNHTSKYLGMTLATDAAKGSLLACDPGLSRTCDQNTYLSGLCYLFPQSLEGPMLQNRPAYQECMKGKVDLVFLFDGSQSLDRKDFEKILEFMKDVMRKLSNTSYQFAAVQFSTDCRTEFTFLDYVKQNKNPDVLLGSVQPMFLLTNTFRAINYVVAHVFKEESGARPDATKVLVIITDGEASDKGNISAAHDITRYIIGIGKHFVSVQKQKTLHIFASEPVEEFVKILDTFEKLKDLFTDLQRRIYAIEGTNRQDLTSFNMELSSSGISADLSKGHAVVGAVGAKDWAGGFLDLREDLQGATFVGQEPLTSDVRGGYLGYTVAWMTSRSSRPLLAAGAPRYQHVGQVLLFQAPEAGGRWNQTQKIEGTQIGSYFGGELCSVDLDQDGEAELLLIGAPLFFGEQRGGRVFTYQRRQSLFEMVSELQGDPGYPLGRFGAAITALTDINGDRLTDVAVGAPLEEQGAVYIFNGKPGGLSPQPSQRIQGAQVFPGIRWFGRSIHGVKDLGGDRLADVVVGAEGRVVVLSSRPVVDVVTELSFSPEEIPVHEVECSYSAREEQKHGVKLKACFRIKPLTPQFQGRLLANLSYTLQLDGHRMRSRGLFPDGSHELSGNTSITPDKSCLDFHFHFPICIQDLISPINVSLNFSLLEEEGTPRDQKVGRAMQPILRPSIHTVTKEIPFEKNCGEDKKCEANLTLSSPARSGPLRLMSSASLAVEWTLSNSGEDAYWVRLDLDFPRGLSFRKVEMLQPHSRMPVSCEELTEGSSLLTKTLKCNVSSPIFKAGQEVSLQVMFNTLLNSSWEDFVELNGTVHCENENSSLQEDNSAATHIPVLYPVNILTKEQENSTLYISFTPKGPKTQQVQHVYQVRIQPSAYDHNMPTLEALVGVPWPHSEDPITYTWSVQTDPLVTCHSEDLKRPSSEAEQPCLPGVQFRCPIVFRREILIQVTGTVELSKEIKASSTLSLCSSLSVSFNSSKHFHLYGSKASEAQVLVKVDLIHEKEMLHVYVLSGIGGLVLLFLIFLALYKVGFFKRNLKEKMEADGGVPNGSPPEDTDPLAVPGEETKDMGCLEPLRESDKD
T1 sequence (P11835 24-771 partner): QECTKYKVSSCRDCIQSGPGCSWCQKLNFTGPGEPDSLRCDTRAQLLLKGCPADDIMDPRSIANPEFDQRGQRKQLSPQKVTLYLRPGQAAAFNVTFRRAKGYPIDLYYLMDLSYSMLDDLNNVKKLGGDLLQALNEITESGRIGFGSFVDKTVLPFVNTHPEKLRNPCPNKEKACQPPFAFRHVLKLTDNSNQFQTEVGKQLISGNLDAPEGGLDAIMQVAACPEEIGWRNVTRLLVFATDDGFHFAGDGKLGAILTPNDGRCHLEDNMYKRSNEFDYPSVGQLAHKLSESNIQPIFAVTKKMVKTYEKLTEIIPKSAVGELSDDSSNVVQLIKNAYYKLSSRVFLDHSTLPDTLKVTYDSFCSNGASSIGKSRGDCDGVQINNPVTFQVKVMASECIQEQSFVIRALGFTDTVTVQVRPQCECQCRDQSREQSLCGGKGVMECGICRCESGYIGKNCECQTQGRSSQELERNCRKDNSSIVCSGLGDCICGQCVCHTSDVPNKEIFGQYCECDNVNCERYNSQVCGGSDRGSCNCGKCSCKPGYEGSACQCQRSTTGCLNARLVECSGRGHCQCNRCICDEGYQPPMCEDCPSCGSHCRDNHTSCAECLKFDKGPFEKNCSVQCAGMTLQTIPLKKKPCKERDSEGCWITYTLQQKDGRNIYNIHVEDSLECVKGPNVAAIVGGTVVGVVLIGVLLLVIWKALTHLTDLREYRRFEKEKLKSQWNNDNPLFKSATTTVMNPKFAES

## CC[C@H](C)C(=O)O[C@H]1C[C@@H](C)C=C2C=C[C@H](C)[C@H](CC[C@H]3C[C@@H](O)CC(=O)N3Cc3ccc4c(CO)c(OC)ccc4c3)[C@H]21 [LFA703]
[1]
  inflammatory response: suppressed the inflammatory response

## COc1cccc(-c2cc(=O)c3ccccc3o2)c1N [PD98059]
[2]
  effector-target (E:T) conjugate formation: did not
[3]
  effect on ICAM-2 anti-apoptotic effect, other kinase inhibitors: not abrogated
[4]
  perforin redistribution: inhibits perforin redistribution to the site of effector-target cell contact

## CC(C)(C)c1cc(C=C(C#N)C#N)cc(C(C)(C)C)c1O [tyrphostin A9]
[5]
  effect on ICAM-2 induced activation of Raf and p44/42 MAPK: abrogated
[6]
  sICAM-2 induced Pyk2 phosphorylation: abrogated

## Oc1cc(O)cc(/C=C/c2ccc(O)c(O)c2)c1 [piceatannol]
[7]
  natural cytotoxicity: inhibits natural cytotoxicity
